Laboratory results reported in patent publication US20190127366A1 (LifeSci Pharmaceuticals, Inc., priority 2015, published 2019).

Assays:
[1] = target: T1, human complement factor D (Homo sapiens, UniProt P00746); test: In vitro enzyme inhibition (Z-Lys-SBzl/DTNB absorbance assay); assay type: biochemical; conditions: Complement Factor D (R&D Systems), substrate Z-Lys-SBzl, A405 nm; read-out: CFD IC50
T1 construct: purchased R&D Systems 1824-SE
In short: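 Factor D (6.25 ng/μL before addition) preincubated 5 min RT with compound (8 points from 50 μM, 6-fold, 0.5% DMSO final) in 50 mM Tris/HCl pH 7.5, 1 M NaCl, then Z-Lys-SBzl/DTNB added (200 μM each before addition). A405 read kinetically every 30 s for 60 min; IC50 from variable-slope fit, controls with and without enzyme.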

[2] = system: alternative pathway (AP) hemolytic activity; test: AP hemolysis inhibition assay; assay type: cell-based; conditions: Erythrocyte, 1 h; Normal Human Serum, chicken or rabbit erythrocytes, 60 min at 37° C., OD 414 nm
Procedure: The ability of the compounds disclosed herein to inhibit alternative pathway (AP) hemolytic activity was determined. Red blood cells (RBC), chicken or rabbit erythrocyctes (SbjBio), were washed three time using assay buffer containing 0.1% gelatin, 5 mM Veronal, 145 mM NaCl, 0.025% NaN3, 10 mM Mg-EGTA pH 7.3. In 100 μL reaction system, 1300 to 1500 ng/μL final concentration of Normal Human Serum (CompTech) was incubated with compound for 15 min at 37° C. Then 2×10^6 cells/well of chicken or rabbit erythrocytes in assay buffer were added and incubated for an additional 60 min at 37° C. Positive control (100% lysis) consists of serum and RBC, and negative control (0% lysis) consists of assay buffer and RBC only. Samples were centrifuged at 2000 g for 5 min, and supernatants collected. Optical density of the supernatant is monitored at 414 nm using Synergy 2 (BioTek). Percentage lysis in each sample is calculated relative to positive control (100% lysis).
Table 3 discloses the inhibitory activity of the compounds provided herein in the hemolysis assay.

T1 sequence (P00746 26-253): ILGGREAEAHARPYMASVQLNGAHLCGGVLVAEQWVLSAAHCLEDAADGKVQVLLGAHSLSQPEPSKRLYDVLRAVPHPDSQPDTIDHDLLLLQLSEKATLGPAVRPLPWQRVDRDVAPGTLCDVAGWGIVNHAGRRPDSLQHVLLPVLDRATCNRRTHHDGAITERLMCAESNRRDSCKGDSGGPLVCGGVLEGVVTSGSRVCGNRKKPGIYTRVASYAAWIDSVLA

IC50 [1] [nM] | Structure (SMILES) | EC50 [2] [nM]
< 100 | CC(=O)c1nn(CC(=O)N2CC[C@H]2C(=O)NCc2cccc(Cl)c2F)c2ccccc12 [Example 190, (S)-1-(2-(3-acetyl-1H-indazol-1-yl)acetyl)-N-(3-chloro-2-fluorobenzyl)azetidine-2-carboxamide] | < 100
< 100 | NC(=O)c1nn(CC(=O)N2[C@@H]3CC[C@@H](C3)[C@H]2C(=O)Nc2cccc(Cl)n2)c2cc(C(=O)O)ccc12 [Example 123, 3-carbamoyl-1-(2-((1R,3S,4S)-3-((6-chloropyridin-2-yl)carbamoyl)-2-azabicyclo[2.2.1]heptan-2-yl)-2-oxoethyl)-1H-indazole-6-carboxylic acid] | < 100
< 100 | NC(=O)c1nn(CC(=O)N2[C@H](C(=O)NCc3cccc(Cl)c3F)C[C@@H]3CCC[C@@H]32)c2ccccc12 [Example 157, 1-(2-((2S,3aS,6aS)-2-((3-chloro-2-fluorobenzyl)carbamoyl)hexahydrocyclopenta[b]pyrrol-1(2H)-yl)-2-oxoethyl)-1H-indazole-3-carboxamide] | 100 to 1000
100 to 1000 | NC(=O)c1nn(CC(=O)N2[C@@H]3CC[C@@H](C3)[C@H]2C(=O)Nc2cccc(Cl)c2F)c2ccccc12 [Example 18, 1-(2-((1R,3S,4S)-3-((3-chloro-2-fluorophenyl)carbamoyl)-2-azabicyclo[2.2.1]heptan-2-yl)-2-oxoethyl)-1H-indazole-3-carboxamide] | 1000 to 10000
100 to 1000 | NC(=O)c1nn(CC(=O)N2[C@@H]3CC[C@@H](C3)[C@H]2C(=O)Nc2cccc(Cl)n2)c2ccc(C3CC3)cc12 [Example 56, 1-(2-((1R,3S,4S)-3-((6-chloropyridin-2-yl)carbamoyl)-2-azabicyclo[2.2.1]heptan-2-yl)-2-oxoethyl)-5-cyclopropyl-1H-indazole-3-carboxamide 2,2,2-trifluoroacetate] | 100 to 1000
< 100 | NC(=O)n1nc(CC(=O)N2CC[C@H]2C(=O)NCc2cccc(Cl)c2F)c2ccccc21 [Example 188, (S)-3-(2-(2-((3-chloro-2-fluorobenzyl)carbamoyl)azetidin-l-yl)-2-oxoethyl)-1H-indazole-1-carboxamide] | 100 to 1000
< 100 | NC(=O)c1nn(CC(=O)N2[C@H](C(=O)NCc3cccc(Cl)c3F)C[C@@H]3CCC[C@@H]32)c2cc(F)ccc12 [Example 167, 1-(2-((2S,3aS,6aS)-2-((3-chloro-2-fluorobenzyl)carbamoyl)hexahydrocyclopenta[b]pyrrol-1(2H)-y1)-2-oxoethyl)-6-fluoro-1H-indazole-3-carboxamide] | 100 to 1000
100 to 1000 | NC(=O)n1cc(NC(=O)N2[C@@H]3CC[C@@H](C3)[C@H]2C(=O)Nc2cccc(Cl)n2)c2ccccc21 [Example 156, (1R,3S,4S)-N2-(1-carbamoyl-1H-indol-3-yl)-N3-(6-chloropyridin-2-yl)-2-azabicyclo[2.2.1]heptane-2,3-dicarboxamide] | 100 to 1000
< 100 | NC(=O)c1nn(CC(=O)N2[C@@H]3CC[C@@H](C3)[C@H]2C(=O)Nc2cccc(Br)n2)c2ccccc12 [Example 65, 1-(2-((1R,3S,4S)-3-((6-bromopyridin-2-yl)carbamoyl)-2-azabicyclo[2.2.1]heptan-2-yl)-2-oxoethyl)-1H-indazole-3-carboxamide] | 100 to 1000
1000 to 10000 | COC(=O)C(NC(=O)[C@@H]1[C@H]2CC[C@H](C2)N1C(=O)Cn1nc(C(N)=O)c2ccccc21)c1cccc(Cl)c1F (stereo partly drawn) [Example 136, methyl 2-((1R,3S,4S)-2-(2-(3-carbamoyl-1H-indazol-1-yl)acetyl)-2-azabicyclo[2.2.1]heptane-3-carboxamido)-2-(3-chloro-2-fluorophenyl)acetate] | –
